A word on the IC50: it is the midpoint of a concentration-inhibition curve. As usually defined, the EC50 is the midpoint of the concentration-response curve.

Bridge positions count the residues as written; N and C are the ends. Square brackets hold non-standard residues; d marks the D form. Peptide text beside a SMILES is read from it. R8 = C=CCCCCCC[C@@](C)(N)C(=O)O; S5 = C=CCCC[C@](C)(N)C(=O)O; Nle = CCCC[C@H](N)C(=O)O

The target of test [1] is T1, flag-tagged HIF1α (AA 786-826) / His6-tagged p300 (AA 323-423) complex (Homo sapiens, UniProt Q09472).
T1 construct: His6-tagged p300 (AA 323-423); made in house; host or cells: E. coli (pETDuet vector)
The test is described as follows: HIF1α p300 displacement assay (TR FRET, +CHAPS). The class given is binding. The conditions noted are these: read-out: IC50 (nM) (HIF1α_p300 Displacement + CHAPS). The method, boiled down: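 The co-expressed flag-HIF1α (786-826)/His6-p300 (323-423) complex, purified from E. coli with 0.1 mM ZnSO4, was used at 300 nM final with competitor peptides for 1 h at room temperature. Buffer was 150 mM NaCl, 20 mM HEPES pH 7.4, 7.5 mM CHAPS and 1 mM DTT. Anti-Flag-K (0.5 μM) and anti-His-D2 (4 nM) were then added for 2 h, and IC50s were fitted from the TR-FRET ratio.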
(In general: Time-resolved FRET reads energy transfer from a long-lived donor to a nearby acceptor.)

The test system of test [2] is HRE-bla ME-180 cells. The test can be described thus: Cell proliferation assay (viability, MTT, 1% FBS). The class given is cell-based, human. Here is the method:
The human cervical cell line HRE-Bla ME-180 was obtained from Invitrogen. 2×10^4 ME-180 cells were plated in 96-well plates (costar) in Opti-MEM plus 1% FBS (Invitrogen). After 4 hr, cells were pretreated with chetomin, peptide or 0.5% DMSO (final concentration in media) vehicle control for 16 hr under normoxia (21% O2); then incubation continued under normoxia or hypoxia (1% O2) using a hypoxia incubator (Thermo Forma model). Viable cell numbers were quantified using CellTiter 96 Non-Radioactive Cell Proliferation kit (Promega, G4100). The results are presented in the column “Viability 1% FBS AVG (MTT V3-24 hr Normoxia) (μM)” of Table 6.

Test [3] concerns HRE-bla ME-180 cells. The test can be described thus: Reporter gene assay (HRE-bla ME-180 HIF reporter, GeneBLAzer). Type of test: cell-based, human. Particulars: for EC50: 24 hour normoxia. The method, boiled down:
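A FRET β-lactamase readout of HIF transcription was used. After compound treatment in 0.3% DMSO/media under normoxic conditions, 20 μl of 6× LiveBLAzer-FRET B/G (CCF4-AM) substrate was added. Plates sat 3 hr at room temperature in the dark and were read at 409 Ex/460Em and 409Ex/530Em on a Synergy 2. Inhibition was compared against DMSO vehicle controls, with chetomin as positive control.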
(In general: Reporter assays use an easily measured gene product as a stand-in for the process of interest.)

T1 sequence (Q09472 323-423, one chain of several): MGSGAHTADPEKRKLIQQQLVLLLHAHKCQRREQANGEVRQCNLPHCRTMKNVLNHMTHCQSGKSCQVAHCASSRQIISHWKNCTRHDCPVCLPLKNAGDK

In the case of `CC[C@H](C)[C@H](NC(=O)[C@H](Cc1ccccc1)NC(C)=O)C(=O)N[C@@H](CC(=O)O)C(=O)N[C@@H](CCC(=O)O)C(=O)N[C@@H](CCC(=O)O)C(=O)N[C@H](C(=O)N[C@@H](CC(C)C)C(=O)N[C@@H](CCSC)C(=O)N[C@@]1(C)CCCC=CCCC[C@@](C)(C(=O)N[C@@H](CCSC)C(=O)N[C@@H](C)C(=O)N[C@@H](CC(C)C)C(N)=O)NC(=O)[C@H]([C@@H](C)CC)NC(=O)[C@H](C(C)C)NC(=O)[C@H](CC(C)C)NC1=O)C(C)C` [SP-7] (Ac-FIDEEVLM[S5]LVI[S5]MAL-NH2; staple 9-13), in test [1], the IC50 is 400 to 700 nM. In addition, in the test with HRE-bla ME-180 cells [2], the “Viability 1% FBS AVG (MTT V3-24 hr Normoxia) (μM)” value (“Viability 1% FBS AVG” below) is given as “++++ (≥30: ++++)”.
Take `CC[C@H](C)[C@H](NC(=O)[C@H](CCCNC(=N)N)NC(=O)[C@H](CC(=O)O)NC(=O)[C@H](CC(C)C)NC(=O)[C@H](C)NC(=O)[C@H](CCSC)NC(=O)[C@]1(C)CCCC=CCCC[C@](C)(NC(=O)[C@H](CCSC)NC(=O)[C@H](Cc2ccccc2)NC(=O)[C@@H](NC(=O)[C@H](CCC(=O)O)NC(=O)[C@H](CCC(N)=O)NC(=O)[C@H](CC(=O)O)NC(=O)[C@@H](NC(=O)[C@H](Cc2ccccc2)NC(C)=O)[C@@H](C)CC)C(C)C)C(=O)N[C@@H](CC(C)C)C(=O)N[C@@H](C(C)C)C(=O)N[C@@H]([C@@H](C)CC)C(=O)N1)C(N)=O` [SP-267] (Ac-FIDQEVFM[S5]LVI[S5]MALDRI-NH2; staple 9-13): in the test with HRE-bla ME-180 cells [3], the “18 h Avg % max inhibition at top conc (HIF Rptr-24 hrs normoxia) (μM)” value (from here on “18 h Avg % max inhibition at top conc”) is on record as “+++ (≤25 but <50: +++)” and the concentration for a half-maximal effect (EC50) is greater than 30 µM. In addition, the “Viability 1% FBS AVG” value in the test with HRE-bla ME-180 cells [2] is “++++ (≥30: ++++)”.
On the same counts, the results for `CC[C@H](C)[C@H](NC(=O)[C@H](Cc1ccccc1)NC(C)=O)C(=O)N[C@@H](CC(=O)O)C(=O)N[C@@H](CCC(=O)O)C(=O)N[C@@H](CCC(=O)O)C(=O)N[C@H](C(=O)N[C@@H](CC(C)C)C(=O)N[C@@H](CCSC)C(=O)N[C@@]1(C)CCCC=CCCC[C@@](C)(C(=O)N[C@@H](CCSC)C(=O)N[C@@H](C)C(=O)N[C@@H](CC(C)C)C(=O)N[C@@H](CC(C)C)C(N)=O)NC(=O)[C@H]([C@@H](C)CC)NC(=O)[C@H](C(C)C)NC(=O)[C@H](CC(C)C)NC1=O)C(C)C` [SP-229] (Ac-FIDEEVLM[S5]LVI[S5]MALL-NH2; staple 9-13) are “+ (<10: +)”, greater than 30 µM and “++++ (≥30: ++++)”.
For the molecule `CC[C@H](C)[C@H](NC(=O)[C@H](CCCNC(=N)N)NC(=O)[C@H](CC(=O)O)NC(=O)[C@H](CC(C)C)NC(=O)[C@H](C)NC(=O)[C@H](CCSC)NC(=O)[C@H](CCC(=O)O)NC(=O)[C@]1(C)CCCC=CCCCCCC[C@@](C)(NC(=O)[C@H](CCC(=O)O)NC(=O)[C@H](CC(=O)O)NC(=O)[C@@H](NC(=O)[C@H](Cc2ccccc2)NC(C)=O)[C@@H](C)CC)C(=O)N[C@@H](C(C)C)C(=O)N[C@@H](CC(C)C)C(=O)N[C@@H](CCSC)C(=O)N[C@@H](CO)C(=O)N[C@@H](CC(C)C)C(=O)N[C@@H](C(C)C)C(=O)N1)C(N)=O` [SP-175] (Ac-FIDE[R8]VLMSLV[S5]EMALDRI-NH2; staple 5-12), in the test with HRE-bla ME-180 cells [3], the “18 h Avg % max inhibition at top conc” value is reported as “++ (≤10 but <25: ++)” and the 50% effective concentration (EC50) was greater than 30 µM. Besides, the “Viability 1% FBS AVG” value with HRE-bla ME-180 cells [2] is “++++ (≥30: ++++)”.
The like results for `CC[C@H](C)[C@H](NC(=O)[C@H](CCCNC(=N)N)NC(=O)[C@H](CC(=O)O)NC(=O)[C@H](CC(C)C)NC(=O)[C@H](C)NC(=O)[C@H](CCSC)NC(=O)[C@]1(C)CCCC=CCCC[C@](C)(NC(=O)[C@H](CCSC)NC(=O)[C@H](CC(C)C)NC(=O)[C@@H](NC(=O)[C@H](CCC(N)=O)NC(=O)[C@H](CCC(=O)O)NC(=O)[C@H](CC(=O)O)NC(=O)[C@@H](NC(=O)[C@H](Cc2ccccc2)NC(C)=O)[C@@H](C)CC)C(C)C)C(=O)N[C@@H](CC(C)C)C(=O)N[C@@H](C(C)C)C(=O)N[C@@H]([C@@H](C)CC)C(=O)N1)C(N)=O` [SP-282] (Ac-FIDEQVLM[S5]LVI[S5]MALDRI-NH2; staple 9-13) were, in that order, “++++ (≥50: ++++)”, no more than 5 µM and “++++ (≥30: ++++)”.
On the same counts, the results for `CCCC[C@H](NC(=O)[C@H](Cc1ccccc1)NC(=O)[C@@H](NC(=O)[C@H](C)NC(=O)[C@H](CCC(N)=O)NC(=O)[C@H](CC(=O)O)NC(=O)[C@@H](NC(=O)[C@H](Cc1ccccc1)NC(C)=O)[C@@H](C)CC)C(C)C)C(=O)N[C@@]1(C)CCCC=CCCC[C@@](C)(C(=O)N[C@@H](CCCC)C(=O)N[C@@H](C)C(=O)N[C@@H](CC(C)C)C(=O)N[C@@H](CC(C)C)C(N)=O)NC(=O)[C@H]([C@@H](C)CC)NC(=O)[C@H](C(C)C)NC(=O)[C@H](CC(C)C)NC1=O` [SP-250] (Ac-FIDQAVF[Nle][S5]LVI[S5][Nle]ALL-NH2; staple 9-13) are “+ (<10: +)”, greater than 30 µM and “++++ (≥30: ++++)”.
For `CCCC[C@H](NC(=O)[C@]1(C)CCCC=CCCC[C@](C)(NC(=O)[C@H](CCCC)NC(=O)[C@H](CC(C)C)NC(=O)[C@@H](NC(=O)[C@H](CCC(=O)O)NC(=O)[C@H](CCC(=O)O)NC(=O)[C@H](CC(=O)O)NC(=O)[C@@H](NC(=O)[C@H](CC(N)=O)NC(=O)[C@@H](NC(=O)[C@]2(C)CCCC=CCCCCCC[C@@](C)(NC(=O)[C@H](CCC(=O)O)NC(=O)[C@H](C)NC(=O)[C@H](CCC(N)=O)NC(=O)[C@H](CC(C)C)NC(=O)[C@H](CC(C)C)NC(C)=O)C(=O)N[C@@H](CC(C)C)C(=O)N[C@@H](CC(C)C)C(=O)N[C@@H](CCCNC(=N)N)C(=O)N[C@@H](C)C(=O)N[C@@H](CC(C)C)C(=O)N[C@@H](CC(=O)O)C(=O)N2)C(C)C)[C@@H](C)CC)C(C)C)C(=O)N[C@@H](CC(C)C)C(=O)N[C@@H](C(C)C)C(=O)N[C@@H]([C@@H](C)CC)C(=O)N1)C(N)=O` [SP-350] (Ac-LLQAE[R8]LLRALD[S5]VNIDEEVL[Nle][S5]LVI[S5][Nle]-NH2; staple 6-13, 23-27), in the test on HRE-bla ME-180 cells [3], the “18 h Avg % max inhibition at top conc” value is “+++ (≤25 but <50: +++)” and the EC50 is 5 to 15 µM. Besides, the “Viability 1% FBS AVG” value in the test with HRE-bla ME-180 cells [2] was “++++ (≥30: ++++)”.
For the molecule `CCCC[C@H](NC(=O)[C@H](C)NC(=O)[C@@H](NC(=O)[C@@H](NC(=O)[C@H](CC(C)C)NC(=O)[C@]1(C)CCCC=CCCC[C@](C)(NC(=O)[C@H](CCC(=O)O)NC(=O)[C@H](CC(=O)O)NC(=O)[C@@H](NC(=O)[C@H](Cc2ccccc2)NC(C)=O)[C@@H](C)CC)C(=O)N[C@@H](C(C)C)C(=O)N[C@@H](CC(C)C)C(=O)N[C@@H](CCCC)C(=O)N1)C(C)C)[C@@H](C)CC)C(=O)N[C@@H](C)C(=O)N[C@@H](CC(C)C)C(=O)N[C@@H](CO)C(=O)N[C@@H](CO)C(=O)N[C@H](C(N)=O)[C@@H](C)CC` [SP-129] (Ac-FIDE[S5]VL[Nle][S5]LVIA[Nle]ALSSI-NH2; staple 5-9), in the test on HRE-bla ME-180 cells [3], the “18 h Avg % max inhibition at top conc” value was “++ (≤10 but <25: ++)” and the EC50 was greater than 30 µM. Further, the “Viability 1% FBS AVG” value with HRE-bla ME-180 cells [2] is on record as “++++ (≥30: ++++)”.
On the same counts, the results for `CCCC[C@H](NC(=O)[C@H](CCC(=O)O)NC(=O)[C@@H](NC(=O)[C@@H](NC(=O)[C@H](CC(C)C)NC(=O)[C@]1(C)CCCC=CCCC[C@](C)(NC(=O)[C@H](CCC(=O)O)NC(=O)[C@H](CC(=O)O)NC(=O)[C@@H](NC(=O)[C@H](CC(N)=O)NC(=O)[C@@H](NC(=O)[C@H](CCC(N)=O)NC(=O)[C@]2(C)CCCC=CCCC[C@](C)(NC(=O)[C@H](CC(C)C)NC(=O)[C@H](CCC(=O)O)NC(=O)[C@H](CCC(=O)O)NC(=O)CNC(=O)[C@H](CCC(N)=O)NC(=O)[C@H](CC(C)C)NC(=O)[C@H](CC(C)C)NC(C)=O)C(=O)N[C@@H](CCCNC(=N)N)C(=O)N[C@@H](C)C(=O)N[C@@H](CC(C)C)C(=O)N2)C(C)C)[C@@H](C)CC)C(=O)N[C@@H](C(C)C)C(=O)N[C@@H](CC(C)C)C(=O)N[C@@H](CCCC)C(=O)N1)C(C)C)[C@@H](C)CC)C(=O)NCC(N)=O` [SP-327] (Ac-LLQGEEL[S5]RAL[S5]QVNIDE[S5]VL[Nle][S5]LVIE[Nle]G-NH2; staple 8-12, 19-23) are “+ (<10: +)”, greater than 30 µM and “++++ (≥30: ++++)”.
On the same counts, the results for `CCCC[C@H](NC(=O)[C@H](Cc1ccccc1)NC(=O)[C@@H](NC(=O)[C@H](C)NC(=O)[C@H](CCC(N)=O)NC(=O)[C@H](CC(=O)O)NC(=O)[C@@H](NC(=O)[C@H](Cc1ccccc1)NC(C)=O)[C@@H](C)CC)C(C)C)C(=O)N[C@@]1(C)CCCC=CCCC[C@@](C)(C(=O)N[C@@H](CCC(N)=O)C(=O)N[C@@H](C)C(=O)N[C@@H](CC(C)C)C(=O)N[C@@H](CC(C)C)C(N)=O)NC(=O)[C@H]([C@@H](C)CC)NC(=O)[C@H](C(C)C)NC(=O)[C@H](CC(C)C)NC1=O` [SP-255] (Ac-FIDQAVF[Nle][S5]LVI[S5]QALL-NH2; staple 9-13) are “++++ (≥50: ++++)”, no more than 5 µM and “+ (<5: +)”.

For the origin of these results see patent publication US20190225650A1, “PEPTIDOMIMETIC MACROCYCLES AND USE THEREOF IN REGULATING HIF1ALPHA” (AILERON THERAPEUTICS, INC., priority 2013, published 2019).
